# From patent publication US11712443B2, “17α-monoesters and 17α,21-diesters of cortexolone for use in the treatment of tumors” (COSMO TECHNOLOGIES LTD., priority 2014, dated 2023)
# Like-named read-outs stand apart in the source and are kept apart here.
# Tests used:
# LNCaP = test: ATP-dependent proliferation/viability assay (Cell Titer Glo), 3 days; settings: LNCaP
# Protocol: (§1) The experiment was performed to test and to define the antitumor activity in vitro of cortexolone 17α-benzoate on LNCaP (AR+) and PC3 (AR^−), representative of Prostatic cancer cell lines with Androgen Receptor (AR) positive or negative expression, respectively. The experimental method consisted of: • 1. […] After 24 hours, 10 nM DHT (dihydrotestosterone) with or without anti-androgen compounds, or DMSO vehicle (negative control) was added to the cultures. • 3.
# as §1, with “define” for “define the”, “17α-valerate-21-propionate (CB-03-10)” for “17α-benzoate”, “AR” for “Androgen Receptor (AR)”
# PC3 = test: as above; settings: PC3
# Protocol: as §1
# as §1, with “define” for “define the”, “17α-valerate-21-propionate (CB-03-10)” for “17α-benzoate”, “AR” for “Androgen Receptor (AR)”
# resting PBMC = test: IC50 on resting PBMC (quiescent, non-dividing cells); type: cell-based, human
# Protocol: The ratio from IC50 of the compounds on peripheral blood mononuclear cells (PBMC) and the IC50 on cancer cell lines constitute the Therapeutic Index and show what is the safer compound to be tested.
# (§2) The IC^50 in PBMC were tested in 2 different activation status:
# resting—quiescent, non-dividing cells
# (§3) IC50 of the compounds was determined on fresh cells isolated from human blood (PBMC). The compounds toxicity was determined as follow: Therapeutic Index=Safety/Potency=IC50 stimulated PBMC_/IC50 cancer cell
# HT29 [1] = test: MTT colorimetric assay, 72 h; type: cell-based; settings: for Inhibition (%) on HT29: 72 h, MTT; for Therapeutic Index (TI), Resting PBMC: IC50 resting PBMC / IC50 HT29; for Therapeutic Index (TI), Stimulated PBMC: IC50 stimulated PBMC / IC50 HT29
# Protocol: The experiment was performed to test and define anticancer activity in vitro of Cortexolone 17α-benzoate and cortexolone 17α-valerate-21-propionate on cell lines representatives of epithelial intestinal tumors, namely HT29. The experiment method consisted in: • 1. Monolayer HT-29 cells were plated in: 96-wells plates at the density of 2×10^4 cells/mL. The cells plated were kept at 37° C. in 5% CO2 and left to attach for 24 h. • 2. […] After 72 h of treatment, the MTT colorimetric assay was performed.
# MCF7 = test: In vitro proliferation / cytotoxic assay on breast cancer cells (cell titer glo); settings: MCF7
# Protocol: For the cytotoxic assay: cells seeded in 96 well flat bottom culture plates in media containing charcoal stripped serum. After 24 hours test compounds were added to the cells. DMSO was used as the vehicle negative control and RU486 as the positive control. After 72 hours incubation cell were harvested, lysed and viability determined using the cell titer glow assay for viability.
# [2] = tested on: MiaPaca-2 pancreatic tumor xenograft; test: Human pancreatic tumor xenograft in nude mice, subcutaneous treatment; type: in vivo
# Protocol: The test was carried out comparing the anti-tumor activity of cortexolone 17α-benzoate at two different dosages (8.0 mg/kg, corresponding approximately at 230 μM, and 40 mg/kg, corresponding approximately at 1150 μM), versus the vehicle (i.e. 0.4% (v/v) tween 80 and 0.5% (w/v) carboxymethylcellulose in normal saline) and versus the comparator Cyproterone Acetate at two different dosages (7.4 mg/kg and 37 mg/kg).
# 1×10^6 MiaPaca-2 cells suspended in matrigel were subcutaneously injected into 6 week old athymic nude mice.
# The treatment with the tested compounds, with the vehicle and with the comparative compound, was initiated after the tumor volume has reached 50 mm3 after transplantation. All compounds were injected 100 μL/mouse subcutaneously of low dose solution (approximately 230 μM) or 100 μL/mouse of high dose solution (approximately 1150 μM) of cortexolone 17α-benzoate, vehicle and cyproterone acetate, respectively. Compounds and controls were administered subcutaneously daily for 28 days.
# Tumors were measured every 4 days with a digital caliper.
# The results are plotted in FIG. 1 as average change in tumor volume relative to the start of treatment. Tumor volume was calculated according to the formula 0.5236(r1)^2(r2) where r1<r2.
# The test was carried out comparing the anti-tumor activity of cortexolone 17α-valerate-21-propionate (CB-03-10) at two different dosages (approximately 8.6 mg/kg and 43 mg/kg) versus the vehicle (i.e. 0.4% (v/v) tween 80 and 0.5% (w/v) carboxymethylcellulose in normal saline) and versus the comparator Cyproterone Acetate at two different dosages (7.4 mg/kg and 37 mg/kg).
# The treatment with the tested compound, with the vehicle and with the comparative compound was initiated after the tumor has reached a volume of 50 mm3 after implantation, injecting subcutaneously 100 μL/mouse of low dose solution (approximately 230 μM) or 100 μL/mouse of high dose solution (approximately 1150 μM) of cortexolone 17α-valerate-21-propionate (CB-03-10), vehicle and cyproterone acetate, respectively. Compounds and controls were administered subcutaneously daily for 28 days.
# The results are plotted in FIG. 2 as average change in tumor volume relative to the start of treatment. Tumor volume was calculated according to the formula 0.5236(r1)^2(r2) where r1<r2.
# CPA a well-known anti-androgen was used as control. Briefly 1×10^6 MiaPaca2 cells suspended in matrigel were subcutaneously (SC) injected into 6 week old male athymic nude mice. Tumors were measured every 4 days with a digital caliper. Tumor volume was calculated according to the formula: 0.5236(r1)2(r2) where r1<r2. Treatment with CB-03-10 and controls compounds was initiated after the tumor had reached 50 mm3. Compounds diluted in DMSO/2-hydroxypropyl b-cyclodextrin (vehicle) were injected subcutaneously (SC) daily (100 μL/mouse) at the concentration of 40 mg/Kg daily for 28 consecutive days.
# stimulated PBMC = test: IC50 on stimulated PBMC (actively dividing cells)
# Protocol: as §2
# stimulated—actively dividing cells
# as §3
# BxPC3 = test: In vitro proliferation, larger cancer cell line panel
# HT29 [3] = test: as above; settings: HT29
# Panc1 = test: ATP-dependent proliferation/viability assay (Cell Titer Glo), 3 days; settings: for TI on Resting PBMC: IC50 resting PBMC / IC50 Panc1; for TI on Stimulated PBMC: IC50 stimulated PBMC / IC50 Panc1
# MiaPaca2 = test: as above; settings: for TI on Resting PBMC: IC50 resting PBMC / IC50 MiaPaca2; for TI on Stimulated PBMC: IC50 stimulated PBMC / IC50 MiaPaca2
# [4] = Experiment 1, 0 = higher toxicity in PBMC
smiles,measurement,setting,value
"C[C@]12CCC(=O)C=C1CC[C@@H]1[C@@H]2CC[C@@]2(C)[C@H]1CC[C@]2(OC(=O)c1ccccc1)C(=O)CO [CB-03-06, cortexolone 17α-benzoate]",Therapeutic Index = IC50 resting PBMC/IC50 cancer cell,LNCaP; Table IV,8
same,Therapeutic Index = IC50 stimulated PBMC/IC50 cancer cell,LNCaP; Table VII,8
same,Therapeutic Index = IC50 resting PBMC/IC50 cancer cell,PC3; Table IV,3
same,Therapeutic Index = IC50 stimulated PBMC/IC50 cancer cell,PC3; Table VII,3
same,IC50,resting PBMC; Example 7 Experiment 1,100 µM
same,IC50,resting PBMC; Example 7 Experiment 2,85 µM
same,Inhibition (%) on HT29,HT29 [1]; 0.8 micromolar,−1.55%
same,Inhibition (%) on HT29,HT29 [1]; 4 micromolar,20.40%
same,Inhibition (%) on HT29,HT29 [1]; 20 micromolar,53.60%
same,Inhibition (%) on HT29,HT29 [1]; 100 micromolar,92.24%
same,Inhibition (%) on HT29,HT29 [1]; 500 micromolar,92.31%
same,"Therapeutic Index (TI), Resting PBMC",HT29 [1]; Example 9 Experiment 1,6
same,"Therapeutic Index (TI), Resting PBMC",HT29 [1]; Example 9 Experiment 2,5
same,"Therapeutic Index (TI), Stimulated PBMC",HT29 [1]; Example 9 Experiment 1,7
same,"Therapeutic Index (TI), Stimulated PBMC",HT29 [1]; Example 9 Experiment 2,6
same,Therapeutic Index = IC50 resting PBMC/IC50 cancer cell,MCF7; Table IV,4
same,Therapeutic Index = IC50 stimulated PBMC/IC50 cancer cell,MCF7; Table VII,4
same,pancreatic tumor size increase relative to size when treatment was initiated,"[2]; Example 5, high dose 40 mg/kg (approximately 1150 μM, 100 μL/mouse) SC daily 28 days",less than 5 fold
same,in vivo antitumor activity compared with Cyproterone Acetate,"[2]; Examples 5 and 6, FIG. 3, same animal model",antitumor activity higher than Cyproterone Acetate
same,Therapeutic Index = IC50 resting PBMC/IC50 cancer cell,"stimulated PBMC; PBMC Stim, healthy lymphocyte, Table IV",1
same,"Therapeutic Index = IC50 stimulated PBMC/IC50 cancer cell, AVERAGE","stimulated PBMC; average across the 7 cancer cell lines, Table VII",5
same,IC50,"stimulated PBMC; read-out: IC50 on Stimulated PBMC, Example 7 Experiment 1",113 µM
same,IC50,"stimulated PBMC; read-out: IC50 on Stimulated PBMC, Example 7 Experiment 2",97 µM
same,IC50,"stimulated PBMC; read-out: In vitro proliferation IC50, PBMC STIMULATED, healthy lymphocyte, Table IV",97 µM
same,Therapeutic Index = IC50 resting PBMC/IC50 cancer cell,BxPC3; Table IV,3
same,Therapeutic Index = IC50 stimulated PBMC/IC50 cancer cell,BxPC3; Table VII,3
same,Therapeutic Index = IC50 resting PBMC/IC50 cancer cell,HT29 [3]; Table IV,6
same,Therapeutic Index = IC50 stimulated PBMC/IC50 cancer cell,HT29 [3]; Table VII,6
same,IC50,"HT29 [3]; read-out: In vitro proliferation IC50, Table IV",10 µM
same,TI on Resting PBMC,Panc1; [4],4
same,TI on Resting PBMC,Panc1; Experiment 2,3
same,TI on Stimulated PBMC,"Panc1; Experiment 1, 0 = higher toxicity in PBMC than in the cancer cell lines",5
same,TI on Stimulated PBMC,Panc1; Experiment 2,3
same,Therapeutic Index = IC50 resting PBMC/IC50 cancer cell,"Panc1; Panc1, Table IV",3
same,Therapeutic Index = IC50 stimulated PBMC/IC50 cancer cell,"Panc1; Panc1, Table VII",3
same,TI on Resting PBMC,MiaPaca2; [4],6
same,TI on Resting PBMC,MiaPaca2; Experiment 2,4
same,TI on Stimulated PBMC,MiaPaca2; [4],7
same,TI on Stimulated PBMC,MiaPaca2; Experiment 2,5
same,Therapeutic Index = IC50 resting PBMC/IC50 cancer cell,"MiaPaca2; MiaPaca2, Table IV",5
same,Therapeutic Index = IC50 stimulated PBMC/IC50 cancer cell,"MiaPaca2; MiaPaca2, Table VII",5
